Test results: the CheMixHub viscosity set
Several values for one entry are separate records, joined by “and”; a condition that tells them apart may be missing. Equal values may be shown once.

Key:
[1] = xn = mol fraction of the nth substance listed

O=C1CCCO1
viscosity
Details | 293.15 K | 298.15 K | 303.15 K | 308.15 K | 313.15 K | 318.15 K | 323.15 K
100 kPa | 1.92 mPa·s | 1.73 mPa·s and 1.73 mPa·s (3×) | 1.63 mPa·s and 1.63 mPa·s (3×) and 1.59 mPa·s | 1.52 mPa·s and 1.52 mPa·s (3×) | 1.42 mPa·s and 1.42 mPa·s (3×) | 1.35 mPa·s and 1.35 mPa·s (3×) | 1.3 mPa·s and 1.3 mPa·s (3×)
101 kPa | – | 1.74 mPa·s and 1.764 mPa·s | – | 1.477 mPa·s and 1.522 mPa·s and 1.429 mPa·s | – | 1.286 mPa·s and 1.33 mPa·s and 1.234 mPa·s | 1.206 mPa·s and 1.22 mPa·s
101.3 kPa | – | 1.75 mPa·s | – | – | – | – | –
101.33 kPa | 1.883 mPa·s | 1.738 mPa·s and 1.745 mPa·s | 1.765 mPa·s and 1.61 mPa·s and 1.612 mPa·s | 1.498 mPa·s | 1.39 mPa·s | – | 1.213 mPa·s

CC(C)N
Details | viscosity [mPa·s]
298.15 K, 101 kPa | 0.278

Ic1ccccc1
viscosity [mPa·s]
Details | 293.15 K | 298.15 K | 308.15 K | 318.15 K | 323.15 K
101 kPa | – | 1.513 | 1.318 | 1.162 | 1.083
101.33 kPa | 1.736 | – | – | – | –

COC(=O)CC(=O)OC
Details | viscosity [mPa·s]
303.15 K, 101 kPa | 1.804

Nc1cccc(Cl)c1Cl
Details | viscosity [mPa·s]
313.15 K, 101 kPa | 3.74

BrCCBr
viscosity
Details | 298.15 K | 308.15 K | 323.15 K
101 kPa | 1.613 mPa·s | – | –
101.33 kPa | 1.616 mPa·s and 1.564 mPa·s | 1.384 mPa·s | 1.107 mPa·s

C#Cc1ccccc1
Details | viscosity [mPa·s]
298.15 K, 101 kPa | 0.8829

C1COCCO1
Details | viscosity
293.15 K, 100 kPa | 1.286 mPa·s and 1.221 mPa·s
293.15 K, 101 kPa | 1.271 mPa·s
293.15 K, 101.3 kPa | 1.297 mPa·s
295.1 K, 101.32 kPa | 1.26 mPa·s
298.15 K, 100 kPa | 1.122 mPa·s
298.15 K, 101 kPa | 1.155 mPa·s
298.15 K, 101.33 kPa | 1.321 mPa·s and 1.149 mPa·s
301.15 K, 101.32 kPa | 1.116 mPa·s
302.15 K, 101 kPa | 1.099 mPa·s
303.15 K, 100 kPa | 1.034 mPa·s
304.15 K, 101.32 kPa | 1.046 mPa·s
306.15 K, 101 kPa | 1.029 mPa·s
307.15 K, 101.32 kPa | 0.9913 mPa·s
308.15 K, 100 kPa | 0.999 mPa·s
308.15 K, 101.33 kPa | 1 mPa·s and 0.999 mPa·s and 0.969 mPa·s
309.15 K, 101 kPa | 0.9815 mPa·s
310.15 K, 101.32 kPa | 0.9402 mPa·s
311.15 K, 101 kPa | 0.9497 mPa·s
313.1 K, 101 kPa | 0.929 mPa·s and 0.929 mPa·s
313.15 K, 101.32 kPa | 0.939 mPa·s and 0.8914 mPa·s
313.15 K, 101.33 kPa | 0.9376 mPa·s
316.15 K, 101 kPa | 0.8859 mPa·s
318.15 K, 101.33 kPa | 0.8714 mPa·s and 0.901 mPa·s
320.15 K, 101 kPa | 0.8276 mPa·s
323.1 K, 101 kPa | 0.809 mPa·s and 0.809 mPa·s
323.15 K, 100 kPa | 0.814 mPa·s
323.15 K, 101 kPa | 0.8147 mPa·s and 0.819 mPa·s
323.15 K, 101.33 kPa | 0.8121 mPa·s

C1COCCO1 + CN(C)C=O
viscosity [mPa·s], [1], 101 kPa
Details | x2 = 0.1181 | x2 = 0.2316 | x2 = 0.3406 | x2 = 0.4455 | x2 = 0.5465 | x2 = 0.6439 | x2 = 0.7377 | x2 = 0.8282 | x2 = 0.9156
298.15 K | 1.109 | 1.043 | 0.984 | 0.934 | 0.891 | 0.859 | 0.835 | 0.82 | 0.811
308.15 K | 0.952 | 0.899 | 0.849 | 0.807 | 0.772 | 0.746 | 0.726 | 0.714 | 0.708
318.15 K | 0.843 | 0.797 | 0.753 | 0.713 | 0.68 | 0.653 | 0.636 | 0.624 | 0.618

C[N+](C)(C)CC(=O)[O-] + CC(O)C(=O)O
viscosity [mPa·s], [1]
Details | 293.15 K | 298.15 K | 303.15 K | 308.15 K | 313.15 K | 318.15 K | 323.15 K
100 kPa, x2 = 0.667 | – | 1266 | 818.6 | 544.6 | 374.6 | 260.5 | 190.2
100 kPa, x2 = 0.833 | 386.6 | 245.3 | 167.7 | 120.4 | 86.1 | 65.5 | 50.6
101 kPa, x1 = 0.5 | – | 17780 | – | – | – | 6043 | –

C1=C[C@H]2[C@@H](C1)[C@H]1C=C[C@@H]2C1 + CC(C)O
viscosity [mPa·s], [1], 101.2 kPa
Details | x1 = 0.1015 | x1 = 0.1993 | x1 = 0.2999 | x1 = 0.4006 | x1 = 0.4998 | x1 = 0.5999 | x1 = 0.6977 | x1 = 0.7999 | x1 = 0.8995
293.15 K | 2.227 | 2.228 | 2.271 | 2.356 | 2.481 | 2.69 | 2.944 | 3.291 | 3.718
303.15 K | 1.69 | 1.7 | 1.737 | 1.811 | 1.918 | 2.09 | 2.314 | 2.581 | 2.919
313.15 K | 1.303 | 1.322 | 1.363 | 1.435 | 1.535 | 1.689 | 1.869 | 2.109 | 2.394

C1=C[C@H]2[C@@H](C1)[C@H]1C=C[C@@H]2C1 + Cc1ccc(C)cc1
viscosity [mPa·s], [1], 101.2 kPa
Details | x1 = 0.1024 | x1 = 0.1971 | x1 = 0.3006 | x1 = 0.3993 | x1 = 0.4999 | x1 = 0.6007 | x1 = 0.7014 | x1 = 0.8001 | x1 = 0.8993
293.15 K | 0.7661 | 0.8509 | 0.9724 | 1.127 | 1.347 | 1.626 | 2.014 | 2.625 | 3.5
298.15 K | 0.7144 | 0.7986 | 0.9075 | 1.04 | 1.229 | 1.483 | 1.85 | 2.402 | 3.126
303.15 K | 0.6724 | 0.7508 | 0.8496 | 0.9666 | 1.141 | 1.367 | 1.693 | 2.174 | 2.81
308.15 K | 0.6225 | 0.7021 | 0.7934 | 0.9051 | 1.066 | 1.279 | 1.58 | 1.995 | 2.529
313.15 K | 0.5997 | 0.6653 | 0.7493 | 0.8554 | 1.001 | 1.19 | 1.457 | 1.826 | 2.271
318.15 K | 0.5879 | 0.6586 | 0.7357 | 0.8296 | 0.9662 | 1.138 | 1.371 | 1.689 | 2.104

Cc1ncc[nH]1 + O
viscosity [mPa·s], [1], 100 kPa
Details | x1 = 0.0238 | x1 = 0.0373 | x1 = 0.052 | x1 = 0.0682 | x1 = 0.086
298.15 K | 1.151 | 1.312 | 1.494 | 1.718 | 1.971
303.15 K | 1.02 | 1.16 | 1.315 | 1.498 | 1.707
313.15 K | 0.838 | 0.933 | 1.07 | 1.214 | 1.379
323.15 K | 0.696 | 0.767 | 0.87 | 0.978 | 1.1

COc1ccccc1O + C1COCCO1
[1], 308.15 K, 101 kPa
Details | viscosity [mPa·s]
x2 = 0.1 | 4.29
x2 = 0.2 | 4.18
x2 = 0.3 | 3.795
x2 = 0.4 | 3.347
x2 = 0.5 | 2.73
x2 = 0.6 | 2.231
x2 = 0.7 | 1.834
x2 = 0.8 | 1.453
x2 = 0.9 | 1.172

C[N+](C)(C)CC(=O)[O-] + CC(=O)CCC(=O)O
viscosity [mPa·s], [1]
Details | 298.15 K | 303.15 K | 308.15 K | 313.15 K | 318.15 K | 323.15 K
100 kPa, x2 = 0.667 | 1342 | 857.3 | 572.3 | 393.6 | 268.9 | 194.2
101 kPa, x2 = 0.7 | – | 838 | – | – | – | 221
101 kPa, x2 = 0.9 | 117.7 | – | – | – | – | –
